Measurements as given in patent US8853229B2, “Composition containing statins and omega-3 fatty acids” (Sigma-Tau Industrie Farmaceutiche Riunite S.p.A., priority 2004, dated 2014).

Key:
Assay type in all cases: in vivo, mouse
C57BL/KsJ db/db mice [1] = assay: Plasma HDL-cholesterol levels of db/db mice; conditions: oral twice daily for 25 days, post-absorption conditions, 7.30 hours after last treatment
Description: (§1) The C57BL/KsJ db/db mice used in the experiments were supplied by Jackson Lab (via Ch. River). After 10 days of acclimatisation in standard conditions (22±2° C.; 55±15% humidity; 15-20 air changes/hour; 12 hour light-darkness cycle with light from 7 a.m. to 7 p.m.) on a standard 4 RF21 diet (Mucedola), blood samples were taken in post-absorption conditions (fasting from 8.30 a.m. to 4.30 p.m.) from the caudal vein with the aid of a Jelco 22G catheter (Johnson and Johnson). Glucose, insulin, triglyceride, cholesterol, free fatty acid and urea levels were checked in the plasma to ensure well-matched distribution of the mice in the treatment groups.
(§2) The mice were divided into groups and treated orally twice daily with:
(§3) Omega-3 fatty acid (EPA+DHA 1:1) 200 mg/kg;
(§4) Omega-3 fatty acid (200 mg/kg)+simvastatin (100 mg/kg);
(§5) Omega-3 fatty acid (200 mg/kg)+simvastatin (100 mg/kg); Coenzyme Q10 (50 mg/kg)+resveratrol (5 mg/kg)+policosanols (hexacosanol 25 mg/kg)+pantethine (100 mg/kg+selenium (0.5 μg/kg)+zinc (2.5 mg/kg).
(§6) In the course of the experiment, serum glucose levels, glucose tolerance (OGTT), a number of lipid status variables and weight gain were monitored.

C57BL/KsJ db/db mice [2] = assay: Blood glucose levels of db/db mice (antidiabetic activity); conditions: for Glucose: mean ± S.E.
Excerpt: Mutations in laboratory animals have made it possible to develop models that present non-insulin-dependent diabetes associated with obesity, hyperlipidaemia and insulin resistance and that enable us to test the efficacy of new antidiabetic compounds (Reed and Scribner, Diabetes, obesity and metabolism 1: 75-86, 1999).
A much used genetically diabetic mouse model is the C57BL/KsJ db/db mouse.
The genetic basis of this model is a defect in the leptin receptor gene which gives rise to leptin resistance and leads to hyperphagia, obesity, hyperinsulinaemia and insulin resistance, with subsequent symptoms of insufficient insulin secretion and hyperglycaemia (Kodama et al., Diabetologia 37: 739-744, 1994; Chen et al., Cell 84: 491-495, 1996). Since hyperglycaemia is accompanied by obesity and insulin resistance, the db/db mouse has characteristics that are close to those of type 2 diabetes in man and is useful for assaying insulin-sensitising compounds.
as §1
At the start of treatment, the body weight of the animals was checked and monitoring of the animals' consumption of water and feed was scheduled.
as §2, §3, §4, §5, §6

C57BL/KsJ db/db mice [3] = assay: Plasma triglyceride levels of db/db mice; conditions: oral twice daily for 25 days, post-absorption condition, 7.30 hours after last treatment
Description: (§7) The C57BL/KsJ db/db mice used in the experiments were supplied by Jackson Lab (via Ch. River). […] Glucose, insulin, triglyceride, cholesterol, free fatty acid and urea levels were checked in the plasma to ensure well-matched distribution of the mice in the treatment groups.
as §2, §3, §4, §5, §6

C57BL/KsJ db/db mice [4] = assay: Oral glucose tolerance test (OGTT) in db/db mice; conditions: oral twice daily for 18 days, OGTT glucose 3 g/kg, fasted 18 hours, 5 hours after last treatment
Description: as §7, §2, §3, §4, §5, §6

C57BL/KsJ db/db mice [5] = assay: Plasma fructosamine levels of db/db mice; conditions: oral twice daily for 25 days, post-absorption condition, 7.30 hours after last treatment
Description: as §1, §2, §3, §4, §5, §6

[6] = oral twice daily for 12 days, feeding condition, approx. 15 hours after last treatment
[7] = oral twice daily for 18 days, fasted for 18 hours, 5 hours after last treatment

Compound: CCC(C)(C)C(=O)O[C@H]1C[C@@H](C)C=C2C=C[C@H](C)[C@H](CC[C@@H]3C[C@@H](O)CC(=O)O3)[C@H]21 [Simvastatin]
- % Variation (HDL-cholesterol) vs control (C57BL/KsJ db/db mice [1]): −11.7%
- HDL-cholesterol (C57BL/KsJ db/db mice [1]; mean ± S.E.): 72.4 ± 4.6 mg/dL
- % Variation (glucose) vs control (C57BL/KsJ db/db mice [2]; [6]): −7.6%
- Glucose (C57BL/KsJ db/db mice [2]; [6]): 450 ± 21 mg/dL
- Glucose (C57BL/KsJ db/db mice [2]; oral twice daily for 12 days, post-absorption condition (fasting 9 a.m. to 5 p.m.), 8 hours after last treatment): 419 ± 33 mg/dL
- % Variation (glucose) vs control (C57BL/KsJ db/db mice [2]; oral twice daily for 12 days, post-absorption condition, 8 hours after last treatment): 1.2%
- % Variation (glucose) vs control (C57BL/KsJ db/db mice [2]; [7]): −5.5%
- Glucose (C57BL/KsJ db/db mice [2]; [7]): 325 ± 27 mg/dL
- Variation (triglycerides) vs control (C57BL/KsJ db/db mice [3]): −16.5%
- Triglycerides (C57BL/KsJ db/db mice [3]; mean ± S.E.): 79.7 ± 5.1 mg/dL
- % Variation (AUC glucose, OGTT) vs control (C57BL/KsJ db/db mice [4]): −5.9%
- AUC Glucose (OGTT) (C57BL/KsJ db/db mice [4]; mean ± S.E.): 48174 ± 3555 u.a.
- % Variation (fructosamine) vs control (C57BL/KsJ db/db mice [5]): −2.5%
- Fructosamine (C57BL/KsJ db/db mice [5]; mean ± S.E.): 0.78 ± 0.12 mM
